Data taken from patent US8461202B2, “Composition for treating infectious diseases” (priority 2007, dated 2013).

Experiments:
[1] = target: T1, flavodoxin of H. pylori (Helicobacter pylori, UniProt O25776); experiment: Binding to flavodoxin by isothermal titration calorimetry (ITC); details: 50 mM EPPS buffer, pH 9 with 7% DMSO, protein around 20 μM, read-out: affinity for flavodoxin (affinity constant)
T1 construct: made in house; host or cells: E. coli BL21
Protocol: The specific binding of the inhibitors of the present invention to flavodoxin of H. pylori was confirmed by isothermal titration calorimetry (ITC). This technique not only measures the affinity of each compound for the target protein, but also determines the contribution of the enthalpic and entropic components of binding.
The binding experiments were carried out in 50 mM EPPS buffer, pH 9 with 7% DMSO, with the inhibitor in the injection syringe at a concentration of 300-500 μM, and the protein around 20 μM in the measurement cell.

[2] = target: T2, H. pylori flavodoxin (Helicobacter pylori, UniProt O25776); experiment: Inhibition of the sequential electron transfer reaction pyruvate-PFOR-flavodoxin-FqrB-NADP+ (NADPH formation at 340 nm); format: biochemical; details: 50 μM compound; anaerobic; absorbance at 340 nm; 10 μM Fld
T2 construct: made in house; host or cells: E. coli BL21 (flavodoxin); E. coli JVQ2 (PFOR); E. coli BL21(DE3) (FqrB)
T2 sequence (O25776 1-164): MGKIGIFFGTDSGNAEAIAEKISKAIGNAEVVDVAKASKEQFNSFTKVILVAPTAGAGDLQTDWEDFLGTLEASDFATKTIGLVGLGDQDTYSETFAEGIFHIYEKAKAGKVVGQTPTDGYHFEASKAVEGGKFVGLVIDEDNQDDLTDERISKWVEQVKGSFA
Text: Measurement of the absorbance (A) (AU is the unit of absorbance) at 340 nm against time (t) in seconds (s).
Flavodoxin is an essential protein for Helicobacter pylori survival as it participates in a fundamental reaction for obtaining energy from the oxidative decarboxylation of pyruvate. In this reaction, flavodoxin transfers electrons between the PFOR enzyme and the FqrB enzyme, which releases them to NADP^+.
The sequential reaction of electron transfer between pyruvate, PFOR, flavodoxin, FqrB and NADP^+ (activity assay) was followed spectroscopically by the appearance of the signal at 340 nm with the formation of NADPH. The reaction mixture contained 100 mM potassium phosphate pH 7, 10 mM pyruvate, 0.18 mM CoA, 1 mM MgCl, 0.3 mM NADP^+, 0.09 mg/ml PFOR, 10 μM Fld and 0.15 μM FqrB. The mixture, except CoA, was placed in a cuvette specially designed for anaerobic conditions. Oxygen was removed by means of 5 minute cycles with alternate flows of vacuum and argon. The reaction was started by the addition of 0.18 mM coenzyme A (CoA) that was held in a compartment inside the same cuvette. The reaction completed 15 minutes after adding the CoA reagent.
The inhibition assays were carried out in the same conditions as the activity assays previously described, adding an additional 50 μM of the disclosed compound of the general formula shown in (II) to the reaction cuvette.

O=[N+]([O-])/C=C/c1cc(C(F)(F)F)cc(C(F)(F)F)c1 [(II)]
Kd [1]: 8 µM | inhibition of product (NADPH) formation in the essential reaction of H. pylori [2]: almost total
